Measured values taken from US20230271949A1, “GLP-1R MODULATING COMPOUNDS” (ASCLETIS BIOSCIENCE CO., LTD., priority 2022, published 2023).

Each compound was assayed against GLP-1R (Homo sapiens, UniProt P43220) (assay: GLP-1R agonist cAMP stimulation assay (HTRF cAMP)). Settings: HEK293 cell line expressing GLP-1 target; HTRF cAMP agonist mode, 30 min at RT.
Type: cell-based
How it was run: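 Read-out was HTRF (665/615 ratio), interpolated onto a cAMP standard curve and normalised to DMSO (0%) and maximal GLP-1(7-37) reference (100%) wells. Assay: GLP-1R cells at 1.0×E5/mL incubated with compound dilution series (3-fold, 10 points) for 30 min at room temperature before 60 min detection.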

Chain of GLP-1R (P43220 24-463): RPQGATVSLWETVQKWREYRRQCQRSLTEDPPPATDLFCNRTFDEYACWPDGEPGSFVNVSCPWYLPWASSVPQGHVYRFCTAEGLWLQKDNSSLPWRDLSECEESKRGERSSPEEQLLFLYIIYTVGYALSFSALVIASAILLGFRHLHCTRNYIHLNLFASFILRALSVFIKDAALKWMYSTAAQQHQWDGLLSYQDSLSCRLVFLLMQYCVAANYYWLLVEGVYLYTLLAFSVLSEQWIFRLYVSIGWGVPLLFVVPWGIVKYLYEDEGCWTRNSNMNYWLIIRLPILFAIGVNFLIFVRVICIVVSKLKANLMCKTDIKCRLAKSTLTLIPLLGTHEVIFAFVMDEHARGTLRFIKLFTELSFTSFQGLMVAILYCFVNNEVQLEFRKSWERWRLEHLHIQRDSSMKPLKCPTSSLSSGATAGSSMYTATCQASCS

EC50	SMILES
0.19 nM	Cc1n[nH]c2c(F)cc(NC(=O)c3ccc4c(c3)nc(CN3CC=C(c5cccc6c5O[C@](C)(c5ccc(C#N)cc5F)O6)CC3)n4CC3CCO3)cc12 (some centres unmarked) [Compound 300]
0.18 nM	Cc1cc(NC(=O)c2ccc3c(c2)nc(CN2CC=C(c4cccc5c4OC(C)(c4ccc(Cl)cc4F)O5)CC2)n3C[C@@H]2CCO2)cc2c1NC(=O)C21CC1 (some centres unmarked) [Compound 301]
1.07 nM	Cc1n[nH]c2c(Cl)cc(NC(=O)c3ccc4c(c3)nc(CN3CC=C(c5cccc6c5OC(C)(c5ccc(Cl)cc5F)O6)C[C@@H]3C)n4CC3CCO3)cc12 (some centres unmarked) [Compound 302]
0.91 nM	Cc1cc(NC(=O)c2ccc3c(c2)nc(CN2CC=C(c4cccc5c4OC(C)(c4ccc(Cl)cc4F)O5)CC2)n3C[C@@H]2CCO2)cc2[nH]c(=O)[nH]c12 (some centres unmarked) [Compound 303]
0.18 nM	Cc1n[nH]c2c(F)cc(C(=O)Nc3ccc4c(c3)nc(CN3CC=C(c5cccc6c5OC(C)(c5ccc(Cl)cc5F)O6)CC3)n4CC3CCO3)cc12 (centres unmarked) [Compound 304]
0.19 nM	Cc1n[nH]c2c(C)cc(C(=O)Nc3ccc4c(c3)nc(CN3CC=C(c5cccc6c5OC(C)(c5ccc(Cl)cc5F)O6)CC3)n4CC3CCO3)cc12 (centres unmarked) [Compound 305]
0.56 nM	Cc1n[nH]c2ccc(C(=O)Nc3ccc4c(c3)nc(CN3CC=C(c5cccc6c5OC(C)(c5ccc(Cl)cc5F)O6)CC3)n4CC3CCO3)cc12 (centres unmarked) [Compound 306]
0.21 nM	Cc1cc(C(=O)Nc2ccc3c(c2)nc(CN2CC=C(c4cccc5c4OC(C)(c4ccc(Cl)cc4F)O5)CC2)n3C[C@@H]2CCO2)cc2c1NC(=O)C21CC1 (some centres unmarked) [Compound 307]
3.12 nM	Cc1n[nH]c2c(Cl)cc(C(=O)Nc3ccc4c(c3)nc(CN3CC=C(c5cccc6c5OC(C)(c5ccc(Cl)cc5F)O6)CC3)n4CC3CCO3)cc12 (centres unmarked) [Compound 308]
0.87 nM	Cc1cc(C(=O)Nc2ccc3c(c2)nc(CN2CC=C(c4cccc5c4OC(C)(c4ccc(Cl)cc4F)O5)CC2)n3C[C@@H]2CCO2)cc2[nH]c(=O)[nH]c12 (some centres unmarked) [Compound 309]
0.93 nM	CCc1n[nH]c2ccc(C(=O)Nc3ccc4c(c3)nc(CN3CC=C(c5cccc6c5OC(C)(c5ccc(C#N)cc5F)O6)CC3)n4CC3CCO3)cc12 (centres unmarked) [Compound 310]
0.39 nM	CC(C)c1n[nH]c2ccc(C(=O)Nc3ccc4c(c3)nc(CN3CC=C(c5cccc6c5OC(C)(c5ccc(C#N)cc5F)O6)CC3)n4CC3CCO3)cc12 (centres unmarked) [Compound 311]
0.99 nM	CC1(c2ccc(C#N)cc2F)Oc2cccc(C3=CCN(Cc4nc5cc(NC(=O)c6ccc7[nH]nc(C8CC8)c7c6)ccc5n4CC4CCO4)CC3)c2O1 (centres unmarked) [Compound 312]
1.39 nM	Cc1n[nH]c2c(C(F)(F)F)cc(C(=O)Nc3ccc4c(c3)nc(CN3CC=C(c5cccc6c5OC(C)(c5ccc(Cl)cc5F)O6)CC3)n4C[C@@H]3CCO3)cc12 (some centres unmarked) [Compound 313]
0.63 nM	CC1(c2ccc(Cl)cc2F)Oc2cccc(C3=CCN(Cc4nc5cc(NC(=O)c6cc(F)c7c(c6)C6(CC6)C(=O)N7)ccc5n4C[C@@H]4CCO4)CC3)c2O1 (some centres unmarked) [Compound 314]
1.03 nM	C=C(C)c1n[nH]c2ccc(C(=O)Nc3ccc4c(c3)nc(CN3CC=C(c5cccc6c5OC(C)(c5ccc(Cl)cc5F)O6)CC3)n4CC3CCO3)cc12 (centres unmarked) [Compound 315]
0.54 nM	Cc1n[nH]c2c(F)cc(C(=O)Nc3ccc4c(c3)nc(Cc3c(F)cc(-c5cccc6c5OC(C)(c5ccc(C#N)cc5F)O6)cc3F)n4CC3CCO3)cc12 (centres unmarked) [Compound 316]
0.32 nM	Cc1n[nH]c2c(C)cc(C(=O)Nc3ccc4c(c3)nc(Cc3ccc(-c5cccc6c5OC(C)(c5ccc(C#N)cc5F)O6)cc3F)n4CC3CCO3)cc12 (centres unmarked) [Compound 317]
1.53 nM	Cc1n[nH]c2ccc(C(=O)Nc3ccc4c(c3)nc(Cc3cc(F)c(-c5cccc6c5OC(C)(c5ccc(Cl)cc5F)O6)cc3F)n4CC3CCO3)cc12 (centres unmarked) [Compound 318]
0.43 nM	Cc1cc(C(=O)Nc2ccc3c(c2)nc(Cc2c(F)cc(-c4cccc5c4OC(C)(c4ccc(Cl)cc4F)O5)cc2F)n3C[C@@H]2CCO2)cc2c1NC(=O)C21CC1 (some centres unmarked) [Compound 319]
13.7 nM	Cc1n[nH]c2c(Cl)cc(C(=O)Nc3ccc4c(c3)nc(Cc3cc(F)c(-c5cccc6c5OC(C)(c5ccc(Cl)cc5F)O6)cc3F)n4CC3CCO3)cc12 (centres unmarked) [Compound 320]
0.94 nM	Cc1cc(C(=O)Nc2ccc3c(c2)nc(Cc2c(F)cc(-c4cccc5c4OC(C)(c4ccc(Cl)cc4F)O5)cc2F)n3C[C@@H]2CCO2)cc2[nH]c(=O)[nH]c12 (some centres unmarked) [Compound 321]
31.9 nM	Cc1n[nH]c2ccc(C(=O)Nc3ccc4c(c3)nc(Cc3ccc(-c5cccc6c5OC(C)(c5ccc(Cl)cc5F)O6)s3)n4C[C@@H]3CCO3)cc12 (some centres unmarked) [Compound 322]
2.73 nM	CC(C)c1n[nH]c2ccc(C(=O)Nc3ccc4c(c3)nc(Cc3cc(F)c(-c5cccc6c5OC(C)(c5ccc(C#N)cc5F)O6)cc3F)n4CC3CCO3)cc12 (centres unmarked) [Compound 323]
2.95 nM	Cc1cc(-c2cccc3c2OC(C)(c2ccc(Cl)cc2F)O3)cc(F)c1Cc1nc2cc(NC(=O)c3ccc4[nH]nc(C5CC5)c4c3)ccc2n1CC1CCO1 (centres unmarked) [Compound 324]

EC50	SMILES
1.05 nM	Cc1n[nH]c2c(C(F)(F)F)cc(C(=O)Nc3ccc4c(c3)nc(Cc3ccc(-c5cccc6c5OC(C)(c5ccc(C#N)cc5F)O6)cc3F)n4C[C@@H]3CCO3)cc12 (some centres unmarked) [Compound 325]
0.64 nM	CC1(c2ccc(Cl)cc2F)Oc2cccc(-c3cc(F)c(Cc4nc5cc(NC(=O)c6cc(F)c7c(c6)C(C6CC6)C(=O)N7)ccc5n4C[C@@H]4CCO4)c(F)c3)c2O1 (some centres unmarked) [Compound 326]
3.96 nM	C=C(C)c1n[nH]c2ccc(C(=O)Nc3ccc4c(c3)nc(Cc3c(F)cc(-c5cccc6c5OC(C)(c5ccc(Cl)cc5F)O6)cc3F)n4CC3CCO3)cc12 (centres unmarked) [Compound 327]
12.7 nM	CC1(c2ccc(Cl)cc2F)Oc2cccc(C3=CCN(Cc4nc5cc(C(=O)Nc6ccc7[nH]nc(F)c7c6)ccc5n4CC4CCO4)CC3)c2O1 (centres unmarked) [Compound 328]
1.66 nM	Cc1n[nH]c2c(Cl)cc(NC(=O)c3ccc4c(c3)nc(CN3CC=C(c5cccc6c5O[C@@](C)(c5ccc(Cl)cc5F)O6)C[C@@H]3C)n4CC3CCO3)cc12 (some centres unmarked) [Compound 329]
0.88 nM	CC1(c2ccc(Cl)cc2F)Oc2cccc(C3=CCN(Cc4nc5cc(C(=O)Nc6ccc7[nH]nc(C8CC8)c7c6)ccc5n4CC4CCO4)CC3)c2O1 (centres unmarked) [Compound 330]
1.27 nM	Cc1n[nH]c2c(C(F)(F)F)cc(NC(=O)c3ccc4c(c3)nc(CN3CCC(c5cccc6c5OC(C)(c5ccc(Cl)cc5F)O6)CC3)n4CC3CCO3)cc12 (centres unmarked) [Compound 331]
1.58 nM	Cc1cc(NC(=O)c2ccc3c(c2)nc(CN2CCC(c4cccc5c4OC(C)(c4ccc(Cl)cc4F)O5)CC2)n3CC2CCO2)cc2c(C(F)(F)F)n[nH]c12 (centres unmarked) [Compound 332]
2.19 nM	CC1(c2ccc(Cl)cc2F)Oc2cccc(C3CCN(Cc4nc5cc(C(=O)Nc6ccc7[nH]nc(C(F)(F)F)c7c6)ccc5n4CC4CCO4)CC3)c2O1 (centres unmarked) [Compound 333]
1.03 nM	Cc1n[nH]c2ccc(NC(=O)c3ccc4c(c3)nc(CN3CCC(c5cccc6c5OC(C)(c5ccc(Cl)cc5F)O6)CC3)n4CC3CCO3)cc12 (centres unmarked) [Compound 336]
0.45 nM	Cc1cc(NC(=O)c2ccc3c(c2)nc(CN2CCC(c4cccc5c4OC(C)(c4ccc(Cl)cc4F)O5)CC2)n3C[C@@H]2CCO2)cc2c1NC(=O)C21CC1 (some centres unmarked) [Compound 337]
1.32 nM	Cc1n[nH]c2c(Cl)cc(NC(=O)c3ccc4c(c3)nc(CN3CCC(c5cccc6c5OC(C)(c5ccc(Cl)cc5F)O6)CC3)n4CC3CCO3)cc12 (centres unmarked) [Compound 338]
0.39 nM	Cc1cc(NC(=O)c2ccc3c(c2)nc(CN2CCC(c4cccc5c4OC(C)(c4ccc(Cl)cc4F)O5)CC2)n3C[C@@H]2CCO2)cc2[nH]c(=O)[nH]c12 (some centres unmarked) [Compound 339]
0.54 nM	Cc1cc(C(=O)Nc2ccc3c(c2)nc(CN2CCC(c4cccc5c4OC(C)(c4ccc(Cl)cc4F)O5)CC2)n3C[C@@H]2CCO2)cc2c1NC(=O)C21CC1 (some centres unmarked) [Compound 343]
1.02 nM	Cc1n[nH]c2c(Cl)cc(C(=O)Nc3ccc4c(c3)nc(CN3CCC(c5cccc6c5OC(C)(c5ccc(Cl)cc5F)O6)CC3)n4CC3CCO3)cc12 (centres unmarked) [Compound 344]
0.21 nM	Cc1cc(C(=O)Nc2ccc3c(c2)nc(CN2CCC(c4cccc5c4OC(C)(c4ccc(Cl)cc4F)O5)CC2)n3C[C@@H]2CCO2)cc2[nH]c(=O)[nH]c12 (some centres unmarked) [Compound 345]
0.76 nM	CCc1n[nH]c2ccc(C(=O)Nc3ccc4c(c3)nc(CN3CCC(c5cccc6c5OC(C)(c5ccc(C#N)cc5F)O6)CC3)n4CC3CCO3)cc12 (centres unmarked) [Compound 346]
0.81 nM	CC(C)c1n[nH]c2ccc(C(=O)Nc3ccc4c(c3)nc(CN3CCC(c5cccc6c5OC(C)(c5ccc(C#N)cc5F)O6)CC3)n4CC3CCO3)cc12 (centres unmarked) [Compound 347]
0.91 nM	CC1(c2ccc(C#N)cc2F)Oc2cccc(C3CCN(Cc4nc5cc(NC(=O)c6ccc7[nH]nc(C8CC8)c7c6)ccc5n4CC4CCO4)CC3)c2O1 (centres unmarked) [Compound 348]
1.61 nM	Cc1cc2c(Cl)ccc(COc3cccc(C4=CCN(Cc5nc6cc(C(=O)Nc7cc(C)c8[nH]nc(C(F)F)c8c7)ccc6n5C[C@@H]5CCO5)CC4)n3)c2o1 [Compound 349]
0.51 nM	Cc1cc2c(C#N)ccc(COc3cccc(C4=CCN(Cc5nc6cc(C(=O)Nc7cc(F)c8[nH]nc(C)c8c7)ccc6n5C[C@@H]5CCO5)CC4)n3)c2s1 [Compound 350]
1.03 nM	Cc1n[nH]c2c(C(F)F)cc(NC(=O)c3ccc4c(c3)nc(CN3CC=C(c5cccc(OCc6ccc(Cl)c7cc(Cl)oc67)n5)CC3)n4C[C@@H]3CCO3)cc12 [Compound 352]
0.44 nM	Cc1cc2c(C#N)ccc(COc3cccc(C4=CCN(Cc5nc6cc(C(=O)Nc7cc(F)c8[nH]nc(C)c8c7)ccc6n5C[C@@H]5CCO5)CC4)n3)c2o1 [Compound 353]
0.78 nM	Cc1cc2c(C#N)ccc(COc3cccc(C4=CCN(Cc5nc6cc(C(=O)Nc7ccc8[nH]nc(C)c8c7)ccc6n5C[C@@H]5CCO5)CC4)n3)c2o1 [Compound 355]
2.21 nM	Cc1cc2c(C#N)ccc(COc3cccc(C4=CCN(Cc5nc6cc(C(=O)Nc7ccc8[nH]nc(C(F)(F)F)c8c7)ccc6n5C[C@@H]5CCO5)CC4)n3)c2o1 [Compound 356]
